The subject of assay [1] is Aβ42 production in primary nerve cells. Description: Measurement of amyloid β production inhibition rate using primary nerve cell (Aβ42 sandwich ELISA). The assay is classed as cell-based. The following applies: primary nerve cells from cerebral cortex of SD rat fetus, cultured 3 days with compound, culture supernatant, sandwich ELISA for Aβ42, read-out: Aβ42 production inhibitory activity IC50. As for the experimental part:
Measurement of Amyloid β Production Inhibition Rate Using Primary Nerve Cell
The primary nerve cells were collected from the cerebral cortex of rat fetus (CLEA Japan, Inc.: SD rat, fetal life 17 days of age), and suspended in a neurobasal medium containing B27 supplement, L-glutamine, penicillin-streptomycin (manufactured by Invitrogen) at 500,000 cells/mL. Then, the suspension was seeded in poly L-lysine-coated 96 well plate (manufactured by SUMITOMO BAKELITE) by 100 μL, and cultured at 37° C., 5% CO2 for 7 days. The medium was completely removed, and a new neurobasal medium was added at 75 μL/well. Thereto was added (75 μL/well) a neurobasal medium supplemented with a 2-fold measurement concentration of an evaluation target compound, and the mixture was cultured for 3 days. The culture supernatant was collected from each well, diluted as appropriate, applied to sandwich ELISA between BNT77 antibody-BA27 antibody (for Aβ40) and sandwich ELISA between BNT77 antibody-3005 antibody (for Aβ42), and the amounts of Aβ40 and Aβ42 were measured.
The amyloid β production inhibition rate (%) of the compound was calculated by the following formula. (1−(amyloid β production amount with addition of compound)/(amyloid β production amount without addition of compound))×100
The amyloid β production 50% inhibitory rate (IC50 value) was calculated using the statistical analysis software (SAS Preclinical Package) as the concentration of the compound showing 50% inhibition when the amyloid β production amount without addition of the compound is 100%. In addition, a new neurobasal medium was added (75 μL/well) to the cells after collection of the culture supernatant, and the cells were left standing for about 30 min to reach room temperature. Cell-Titer Glo Luminescent Cell Viability Assay (manufactured by Promega) was added at 75 μL/well, and the plate was shaken for 2 min and reacted for about 10 min.

For assay [2], the system named is Aβ42 (soluble Aβ in hippocampi). Description: Aβ42 in hippocampi of mice after oral administration (Aβ ELISA). The class given is in vivo. The following applies: C57BL/6J mice, 10 mg/kg orally, hippocampi isolated 3 hours after administration, soluble Aβ42 by two-site sandwich ELISA; for inhibition at 10 mg/kg: Mus musculus, po, 3 h, read-out: Aβ42 production inhibitory activity (% inhibition); for Aβ42 production inhibitory activity (% inhibition): 10 mg/kg. The procedure: C57BL/6J mice (7-10 weeks old) were purchased from CLEA Japan Inc. Mice were housed in groups and kept on a 12 h-light; 12 h-dark schedule. All mice were given ad libitum access to food and water.
Each test compound was reconstituted in solubilization buffer ([DMSO (Wako)]: [10% Cremophor (Nakarai)+30% polyethylene glycol 400 (Wako)+60% 2 mol/L Citrate buffer (Wako)]=1:9) and orally administrated at 10 mg/kg.
Hippocampi was isolated from animals, 3 hours after test compounds were orally administrated. Hippocampi were homogenized in ice-cold Tris-extraction buffer (50 mmol/L Tris-HCl, pH 7.2, 200 mmol/L sodium chloride, 2% protease-free bovine serum albumin, and 0.01% sodium merthiolate) containing protease inhibitor cocktails (Roche, Switzerland). After centrifugation at 15,000 rpm for 15 minutes, the supernatants were subjected to two-site sandwich ELISA to measure amount of soluble Aβ. Aβ42 was quantitated by two-site sandwich ELISA using BNT77, which recognizes Aβ11-28, as a capture antibody and BC05-HRP as a detector antibody, respectively.

Read-outs that look alike come from different tables or passages of the source.

The results in this text go back to patent publication US8822699B2, “Heterocyclic compound and use thereof” (Takeda Pharmaceutical Company Limited, priority 2010, dated 2014).

With `COc1cc(-c2nnc3n2CCCC3(CC2CC2)c2ccc(F)c(F)c2)ccc1-c1cnc(C)o1` (stereo not drawn) [Example 21, optically active 8-(cyclopropylmethyl)-8-(3,4-difluorophenyl)-3-[3-methoxy-4-(2-methyl-1,3-oxazol-5-yl)phenyl]-5,6,7,8-tetrahydro[1,2,4]triazolo[4,3-a]pyridine], the IC50 in assay [1] came out at 5 nM. The inhibition at 10 mg/kg in assay [2] came to 39%.
For the molecule `COc1cc(-c2nnc3n2CCCC3(Oc2ccc(C(F)(F)F)cc2)C(C)(C)O)ccc1-c1cnc(C)o1` (stereo not drawn) [Example 132, 2-{3-[3-methoxy-4-(2-methyl-1,3-oxazol-5-yl)phenyl]-8-[4-(trifluoromethyl)phenoxy]-5,6,7,8-tetrahydro[1,2,4]triazolo[4,3-a]pyridin-8-yl}propan-2-ol], the IC50 in assay [1] is 19 nM. Moreover, in assay [2], the “Aβ42 production inhibitory activity (% inhibition)” value is 58%.
With `COc1cc(-c2nnn3c2CCCC3(Oc2cc(F)c(F)c(F)c2)C(C)(C)O)ccc1-c1cnc(C)o1` (stereo not drawn) [Example 186, 2-{3-[3-methoxy-4-(2-methyl-1,3-oxazol-5-yl)phenyl]-7-(3,4,5-trifluorophenoxy)-4,5,6,7-tetrahydro[1,2,3]triazolo[1,5-a]pyridin-7-yl}propan-2-ol], in assay [1], the half-maximal inhibitory concentration (IC50) was 28 nM. The inhibition at 10 mg/kg in assay [2] was 22%.
As for `COc1cc(-c2nnc3n2CCCC3(COc2ccc(Cl)cc2)C(C)(C)O)ccc1-c1cnc(C)o1` (stereo not drawn) [Example 127, 2-{8-[(4-chlorophenoxy)methyl]-3-[3-methoxy-4-(2-methyl-1,3-oxazol-5-yl)phenyl]-5,6,7,8-tetrahydro[1,2,4]triazolo[4,3-a]pyridin-8-yl}propan-2-ol], the IC50 in assay [1] (Rattus norvegicus, 72 h) came to 44 nM. In addition, the inhibition at 10 mg/kg in assay [2] was 21%.
Consider `COc1nc(-c2nnc3n2CCCC3(Oc2ccc(F)c(C(F)(F)F)c2)C(C)(C)O)ccc1-n1cnc(C)c1` (stereo not drawn) [Example 157, 2-{8-[4-fluoro-3-(trifluoromethyl)phenoxy]-3-[6-methoxy-5-(4-methyl-1H-imidazol-1-yl)pyridin-2-yl]-5,6,7,8-tetrahydro[1,2,4]triazolo[4,3-a]pyridin-8-yl}propan-2-ol], for which, in assay [1], the IC50 is 6 nM. For the same molecule, in assay [2], the inhibition at 10 mg/kg was 61%.
On to `COc1nc(-c2nnc3n2CCCC3(Oc2ccc(F)c(C(F)(F)F)c2)C(C)(C)O)ccc1-n1cnc(C)c1` (stereo not drawn) [Example 2, 2-{8-[4-fluoro-3-(trifluoromethyl)phenoxy]-3-[6-methoxy-5-(4-methyl-1H-imidazol-1-yl)pyridin-2-yl]-5,6,7,8-tetrahydro[1,2,4]triazolo[4,3-a]pyridin-8-yl}propan-2-ol], for which the IC50 in assay [1] came to 19 nM. Also, in assay [2], the “Aβ42 production inhibitory activity (% inhibition)” value amounted to 48%.
As to `COc1nc(-c2nnc3n2CCCC3(Oc2cc(F)c(F)c(F)c2)C(C)(C)O)ccc1-c1cnc(C)o1` (stereo not drawn) [Example 172, 2-{3-[6-methoxy-5-(2-methyl-1,3-oxazol-5-yl)pyridin-2-yl]-8-(3,4,5-trifluorophenoxy)-5,6,7,8-tetrahydro[1,2,4]triazolo[4,3-a]pyridin-8-yl}propan-2-ol], the IC50 in assay [1] (Rattus norvegicus, 72 h) was 47 nM. Moreover, in assay [2], the inhibition at 10 mg/kg turned out to be 35%.
As for `COc1nc(-c2nnc3n2CCC[C@]3(Oc2cc(F)c(F)c(F)c2)C(C)(C)O)ccc1-n1cnc(C)c1` [Example 152, 2-{(8R)-3-[6-methoxy-5-(4-methyl-1H-imidazol-1-yl)pyridin-2-yl]-8-(3,4,5-trifluorophenoxy)-5,6,7,8-tetrahydro[1,2,4]triazolo[4,3-a]pyridin-8-yl}propan-2-ol], the IC50 in assay [1] (Rattus norvegicus, 72 h) was found to be 49 nM. The inhibition at 10 mg/kg in assay [2] came to 57%.
For `COc1cc(-c2nnc3n2CCCC3(Oc2cc(F)c(F)c(F)c2)C(C)(C)O)c(F)cc1-c1cnc(C)o1` (stereo not drawn) [Example 162, 2-{3-[2-fluoro-5-methoxy-4-(2-methyl-1,3-oxazol-5-yl)phenyl]-8-(3,4,5-trifluorophenoxy)-5,6,7,8-tetrahydro[1,2,4]triazolo[4,3-a]pyridin-8-yl}propan-2-ol] the same measures were 86 nM and 26%.
On to `COc1cc(-c2nnc3n2CCCC3(Oc2cc(F)cc(F)c2)C(C)(C)O)ccc1-c1cnc(C)o1` (stereo not drawn) [Example 155, 2-{8-(3,5-difluorophenoxy)-3-[3-methoxy-4-(2-methyl-1,3-oxazol-5-yl)phenyl]-5,6,7,8-tetrahydro[1,2,4]triazolo[4,3-a]pyridin-8-yl}propan-2-ol], for which the IC50 in assay [1] is 28 nM. The “Aβ42 production inhibitory activity (% inhibition)” value in assay [2] came to 56%.
As for `CCC(O)(CC)C1(Oc2ccc(Cl)c(F)c2)CCCn2c(-c3ccc(-c4cnc(C)o4)c(OC)c3)nnc21` (stereo not drawn) [Example 120, 3-{8-(4-chloro-3-fluorophenoxy)-3-[3-methoxy-4-(2-methyl-1,3-oxazol-5-yl)phenyl]-5,6,7,8-tetrahydro[1,2,4]triazolo-[4,3-a]pyridin-8-yl}pentan-3-ol], the IC50 in assay [1] (Rattus norvegicus, 72 h) was determined as 4 nM. Moreover, the inhibition at 10 mg/kg in assay [2] amounted to 21%.
As to `COc1nc(-c2nnc3n2CCCC3(Oc2ccc(Cl)c(F)c2)C(C)(C)O)ccc1-n1cnc(C)c1` (stereo not drawn) [Example 1, 2-{8-(4-chloro-3-fluorophenoxy)-3-[6-methoxy-5-(4-methyl-1H-imidazol-1-yl)pyridin-2-yl]-5,6,7,8-tetrahydro[1,2,4]triazolo[4,3-a]pyridin-8-yl}propan-2-ol], the IC50 in assay [1] (Rattus norvegicus, 72 h) came to 27 nM. Also, the inhibition at 10 mg/kg in assay [2] came to 40%.
